ChEMBL document CHEMBL1201862, “PubChem BioAssay data set” (2004)
Counter-ions that a name gives are not always drawn. Calls of active or inactive are those of the source.

Key:
[1] = rise of 4N DNA cells, HeLa – IC50, dose response (AID 1117351); assay type: functional, cell-based
[2] = rise of 2N DNA cells, HeLa – IC50, dose response (AID 1117349); assay type: functional, cell-based
cells = assay type: functional, cell-based; conditions: INS-1E
[3] = IC50 of insulin release inhibition, rat insulinoma INS-1E line, 5 mM glucose, cell-based (AID 1117331); assay type: functional
Transthyretin = Transthyretin (Homo sapiens, UniProt P02766); assay: Luminescence-based cell-based high throughput dose response assay to identify activators of Transthyretin (TTR) transcription.; assay type: functional
[4] = reduction of Shn3 3'UTR-driven luciferase in osteoblasts – cell-based, Clone20 osteoblasts, firefly luciferase, cherry-picked, dose response (AID 624132); assay type: functional;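 further: firefly luciferase luminescence from reporter carrying the Shn3 3'UTR in osteoblasts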
Vero [5] = assay: cells; assay type: functional; conditions: Chlorocebus sabaeus
[6] = Shn3 3'UTR reporter signal decrease – cell-based, Clone20 osteoblasts, firefly luciferase, cherry-pick, set 2, Schnurri-3 inhibitor project, dose response (AID 720490); assay type: functional;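 further: actives lower the luminescence signal as inhibitors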
[7] = non-specific 3'UTR reporter inhibition in Clone20-Shn3RL – cell-based, Renilla luciferase, cherry-picked, counter-screen for Shn3 inhibitor project, dose response (AID 624133); assay type: functional
[8] = EF1alpha-driven Renilla reporter with control 3'UTR suppression – Clone20-Shn3RL cells, dual-Glo, cherry-pick, set 2, counter-screen for Shn3 3'UTR targeting project, dose response (AID 720724); assay type: functional, cell-based; conditions: Dual-Go Shn3RL
Protein skinhead-1 = target: T1, Protein skinhead-1 (Caenorhabditis elegans, UniProt P34707); assay type: functional
T1 sequence (P34707 whole entry): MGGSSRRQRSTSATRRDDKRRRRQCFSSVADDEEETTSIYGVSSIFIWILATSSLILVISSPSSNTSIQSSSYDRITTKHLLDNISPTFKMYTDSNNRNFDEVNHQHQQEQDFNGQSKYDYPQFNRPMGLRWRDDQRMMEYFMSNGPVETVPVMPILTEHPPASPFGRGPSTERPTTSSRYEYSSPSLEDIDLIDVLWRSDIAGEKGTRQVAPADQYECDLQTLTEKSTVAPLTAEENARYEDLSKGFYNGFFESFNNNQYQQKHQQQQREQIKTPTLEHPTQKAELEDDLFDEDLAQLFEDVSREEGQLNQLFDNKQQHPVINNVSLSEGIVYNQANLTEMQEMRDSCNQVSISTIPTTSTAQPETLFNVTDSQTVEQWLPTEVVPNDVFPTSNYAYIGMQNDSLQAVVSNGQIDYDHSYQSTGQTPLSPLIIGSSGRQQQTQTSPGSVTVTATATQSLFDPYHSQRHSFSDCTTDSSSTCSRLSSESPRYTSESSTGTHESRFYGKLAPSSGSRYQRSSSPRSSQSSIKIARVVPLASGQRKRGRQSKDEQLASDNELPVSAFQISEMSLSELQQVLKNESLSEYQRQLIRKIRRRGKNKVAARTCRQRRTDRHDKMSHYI

[9] = target: T2, Tyrosine-protein phosphatase non-receptor type 7 (Homo sapiens, UniProt P35236); assay: HePTP tyrosine phosphatase activity blockers – biochemical, absorbance, leukemia target, primary screen (AID 521); assay type: functional
T2 sequence (P35236 whole entry): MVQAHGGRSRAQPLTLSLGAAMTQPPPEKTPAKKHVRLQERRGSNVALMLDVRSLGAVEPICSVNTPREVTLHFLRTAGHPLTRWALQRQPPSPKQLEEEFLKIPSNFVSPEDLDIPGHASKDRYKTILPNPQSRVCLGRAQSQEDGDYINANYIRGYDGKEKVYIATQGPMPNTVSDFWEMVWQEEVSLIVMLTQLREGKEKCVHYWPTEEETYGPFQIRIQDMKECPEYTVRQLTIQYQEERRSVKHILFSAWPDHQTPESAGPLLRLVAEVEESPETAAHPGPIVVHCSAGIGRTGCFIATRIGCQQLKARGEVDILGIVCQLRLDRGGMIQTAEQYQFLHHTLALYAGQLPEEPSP

[10] = target: NAD-dependent protein deacylase sirtuin-5, mitochondrial (Homo sapiens, UniProt Q9NXA8); assay: sirtuin-5 deacylation blockers, concentration series – biochemical, fluorescence imaging, cherry-pick, set 5, dose response (AID 720591);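 further: desuccinylation of succinyl peptide AMC substrate read as fluorescence after trypsin release; potency of inhibitors that lower fluorescence and may act on trypsin instead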
[11] = target: Sphingosine 1-phosphate receptor 2 (Homo sapiens, UniProt O95136); assay: Dose Response Cell Based Assay for Agonists of the S1P2 Receptor. [Related pubchem assays: 729, 736, 843 ]; assay type: functional
Paired box protein Pax-8 = Paired box protein Pax-8 (Homo sapiens, UniProt Q06710); assay: PAX8 transcriptional activity inhibition in RMG-I – RMG-I cells, luciferase, cherry-pick, dose response (AID 687027); assay type: functional, cell-based;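 further: luciferase reporter driven by Pax8 target thyroperoxidase promoter measured by SteadyGlo luminescence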
[12] = inhibitors acting on PAX2 in cells – cell-based, plate reader, dry powder samples, selectivity assay for PAX8 inhibitor project, dose response (AID 743048); assay type: functional;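 further: HEK293 cells carrying a WT1 promoter luciferase reporter driven by expressed Pax2; potency is for inhibition of Pax2 driven reporter signal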
[13] = PAX8-dependent cell viability loss – plate reader, dry powder, dose response (AID 743049); assay type: functional, cell-based
Vero [14] = assay: cells; assay type: functional, cell-based; conditions: Chlorocebus sabaeus
[15] = PAX5 cellular inhibition readout – cell-based, plate reader, dry powder samples, selectivity assay for PAX8 inhibitor project, dose response (AID 743047); assay type: functional;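 further: HEK293 cells carrying a Pax5 driven CD19 promoter luciferase reporter; potency of inhibitors that lower reporter luminescence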
[16] = Late stage assay provider results from the probe development effort to identify inhibitors of the Plasmodium falciparum M18 Aspartyl Aminopeptidase (M18AAP): radiolabel-based cell-based dose response assay to identify compounds that inhibit P. falciparum growth in RBCs, Set 2..; assay type: functional
[17] = target: T3, Low molecular weight phosphotyrosine protein phosphatase (Homo sapiens, UniProt P24666); assay: inhibition of LMPTP-A enzymatic activity – biochemical, OMFP substrate, fluorescence intensity, set 2, dose response (AID 743307); assay type: functional
T3 sequence (P24666 whole entry): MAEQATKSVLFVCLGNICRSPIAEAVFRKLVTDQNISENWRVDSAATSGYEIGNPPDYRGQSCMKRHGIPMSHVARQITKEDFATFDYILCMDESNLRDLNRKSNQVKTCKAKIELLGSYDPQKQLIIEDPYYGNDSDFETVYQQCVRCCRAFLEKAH

[18] = target: T3, Low molecular weight phosphotyrosine protein phosphatase; assay: inhibition of human LMPTP enzyme activity – biochemical, absorbance, pNPP substrate, LMPTP-A isoform, set 2, orthogonal assay, dose response (AID 743308); assay type: functional
[19] = target: Glutathione-S-transferase (Schistosoma japonicum, UniProt Q26513); assay: GST-antibody interaction or FRET quenching – biochemical, TR-FRET, artefact control for Vif-APOBEC3G degradation inhibitor project, dose response (AID 1117362); assay type: functional
Sequence of Glutathione-S-transferase (Q26513 whole entry): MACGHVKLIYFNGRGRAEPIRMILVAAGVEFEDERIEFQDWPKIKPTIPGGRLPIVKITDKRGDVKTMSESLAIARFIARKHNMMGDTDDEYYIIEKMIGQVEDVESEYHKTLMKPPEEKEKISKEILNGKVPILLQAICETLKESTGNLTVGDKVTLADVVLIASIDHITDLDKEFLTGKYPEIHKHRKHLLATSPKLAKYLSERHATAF

Sequence of NAD-dependent protein deacylase sirtuin-5, mitochondrial (Q9NXA8 whole entry): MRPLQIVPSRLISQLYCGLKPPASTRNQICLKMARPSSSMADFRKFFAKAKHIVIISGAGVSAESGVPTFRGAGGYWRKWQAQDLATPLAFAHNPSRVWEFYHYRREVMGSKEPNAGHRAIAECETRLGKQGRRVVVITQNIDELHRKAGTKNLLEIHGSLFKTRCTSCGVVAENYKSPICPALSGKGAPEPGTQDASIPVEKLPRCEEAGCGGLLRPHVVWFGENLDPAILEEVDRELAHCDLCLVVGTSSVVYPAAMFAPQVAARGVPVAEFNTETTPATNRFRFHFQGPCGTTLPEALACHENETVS
Sequence of Paired box protein Pax-8 (Q06710 whole entry): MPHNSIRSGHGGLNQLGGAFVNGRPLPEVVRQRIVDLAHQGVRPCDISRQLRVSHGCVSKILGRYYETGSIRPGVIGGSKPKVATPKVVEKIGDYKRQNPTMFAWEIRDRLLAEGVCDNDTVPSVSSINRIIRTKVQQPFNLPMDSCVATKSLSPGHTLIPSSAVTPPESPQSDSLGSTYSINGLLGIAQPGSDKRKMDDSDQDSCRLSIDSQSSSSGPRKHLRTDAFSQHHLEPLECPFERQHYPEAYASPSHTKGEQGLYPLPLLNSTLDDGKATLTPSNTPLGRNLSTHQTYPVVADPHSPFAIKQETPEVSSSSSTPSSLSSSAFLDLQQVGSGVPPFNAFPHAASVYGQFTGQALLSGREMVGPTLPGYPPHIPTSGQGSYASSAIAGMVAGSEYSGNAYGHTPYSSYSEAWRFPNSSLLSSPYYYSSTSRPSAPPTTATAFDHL
Sequence of Sphingosine 1-phosphate receptor 2 (O95136 whole entry): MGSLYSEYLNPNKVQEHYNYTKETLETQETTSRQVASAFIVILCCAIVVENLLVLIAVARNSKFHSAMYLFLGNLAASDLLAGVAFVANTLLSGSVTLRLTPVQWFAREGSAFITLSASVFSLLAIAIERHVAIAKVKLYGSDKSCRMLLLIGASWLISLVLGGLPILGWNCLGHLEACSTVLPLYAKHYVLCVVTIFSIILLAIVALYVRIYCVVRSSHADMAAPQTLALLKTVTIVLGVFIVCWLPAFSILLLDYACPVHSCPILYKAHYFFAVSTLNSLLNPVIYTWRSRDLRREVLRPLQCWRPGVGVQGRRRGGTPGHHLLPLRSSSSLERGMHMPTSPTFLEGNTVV

With `CCN(CCCCOC(=O)c1ccc(OC)c(OC)c1)C(C)Cc1ccc(OC)cc1` (centres undefined) [MEBEVERINE HYDROCHLORIDE] the IC50 [1] was > 10 µM (inactive), the IC50 [2] was > 10 µM (inactive) and the IC50 (cells) was > 33.3 µM (inactive). The IC50 [3] was 1.95 µM (active).
With `Oc1cc(O)c2sc(Nc3ccc(Cl)c(F)c3)nc2n1` the EC50 (Transthyretin) was > 167 µM (inactive).
In the case of `O=C(CSc1c2c(nc3ccc(Cl)cc13)CCCC2)NCc1ccco1`, the AC50 [4] was 5.71 µM (active), the CC50 (Vero [5]) was > 25 µM (active) and the AC50 [6] was 8.55 µM (active). For the same compound, the AC50 [7] was 31.2 µM (active), the AC50 [8] was 44.7 µM (active) and the IC50 (Protein skinhead-1) was > 100 µM (inactive).
For `O=c1c2c3c(sc2nc2n1CCC2)CCC3`, the IC50 [9] was > 100 µM (not active).
With `CCN1CCN(C(=O)c2ccc(C(F)(F)F)cc2)CC1` the AC50 [10] was > 30 µM (inactive).
With `Cc1ccc(Cn2cccc(-c3nc4ccccc4s3)c2=O)cc1` the EC50 [11] was 4.14 µM (active).
For `O=C1/C(=C/c2ccccc2)SC(=S)N1CC(=O)N1CCCCC1c1cccnc1` (centres undefined), the CC50 (Vero [5]) was 14.6 µM (active), the AC50 (Paired box protein Pax-8) was 4.37 µM (active) and the AC50 [12] was 70.7 µM (active). The AC50 [13] was 42.1 µM (active), the IC50 (Vero [14]) was > 25 µM (active) and the AC50 [15] was 61.9 µM (active).
In the case of `COc1cc(Br)c(CCNc2c3ccccc3nc3ccccc23)cc1OC`, the IC50 [16] was 0.3 µM (active).
For `c1ccc(-c2nc(NC3CC3)c3ccccc3n2)cc1`, the IC50 [17] was 48.1 µM (inactive) and the IC50 [18] was > 80 µM (inactive).
For `Cn1cnnc1SC/C(O)=C(\C#N)c1nc2ccccc2[nH]1`, the IC50 [19] was > 100 µM (active).
